These results are taken from article PMC3306499 (ACS Chemical Biology, 2012).

The target in one experiment is human A3G (APOBEC3G) (Homo sapiens, UniProt Q9HC16). In words: fluorescence-based ssDNA cytosine deaminase assay, A3G. In kind it is biochemical.
The target of the next experiment is human A3A (APOBEC3A) (Homo sapiens, UniProt P31941). Description: fluorescence-based ssDNA cytosine deaminase assay, A3A. In kind it is biochemical.
Experiment [1] concerns the target E. coli uracil DNA glycosylase (UDG) (Escherichia coli, UniProt P12295). Description: UDG assay. It counts as biochemical.
The target in another experiment is HIV-1 RNase H (Human immunodeficiency virus type 1 group M subtype B, UniProt P04585). Description: HIV-1 RNase H inhibition assay. In kind it is biochemical. Particulars: read-out: IC50 Values RNase H; A3G inhibitors, this study.
The target in a further experiment is HIV RNase H. Conditions: read-out: IC50 Values RNase H, cited from earlier work.
Setting [2] is: read-out: IC50 Values A3G, dose response, purified full-length A3G-mycHis.
[3] abbreviates: read-out: IC50 Values A3A, dose response, purified A3A-mycHis.
The mark [4] stands for this setting: read-out: IC50 Values UDG, no deaminase, uracil ssDNA substrate.

Where a name gives a salt, the structure may show the parent alone. Read-outs that look alike come from different tables or passages of the source. Some results are limits rather than exact numbers.

Sequence of human A3A (APOBEC3A) (P31941 whole entry): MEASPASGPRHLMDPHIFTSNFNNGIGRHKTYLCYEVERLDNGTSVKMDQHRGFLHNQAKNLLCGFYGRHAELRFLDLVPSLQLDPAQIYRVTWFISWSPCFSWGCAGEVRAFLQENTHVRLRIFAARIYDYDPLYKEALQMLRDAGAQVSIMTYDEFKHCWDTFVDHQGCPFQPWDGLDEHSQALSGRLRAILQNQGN
Sequence of E. coli uracil DNA glycosylase (UDG) (P12295 whole entry): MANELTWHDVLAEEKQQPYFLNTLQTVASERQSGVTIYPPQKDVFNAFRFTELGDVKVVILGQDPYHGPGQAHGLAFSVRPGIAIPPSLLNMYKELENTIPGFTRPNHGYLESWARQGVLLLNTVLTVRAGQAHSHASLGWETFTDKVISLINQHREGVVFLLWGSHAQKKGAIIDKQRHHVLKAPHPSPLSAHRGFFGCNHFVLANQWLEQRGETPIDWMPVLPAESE
Sequence of human A3G (APOBEC3G) (Q9HC16 whole entry): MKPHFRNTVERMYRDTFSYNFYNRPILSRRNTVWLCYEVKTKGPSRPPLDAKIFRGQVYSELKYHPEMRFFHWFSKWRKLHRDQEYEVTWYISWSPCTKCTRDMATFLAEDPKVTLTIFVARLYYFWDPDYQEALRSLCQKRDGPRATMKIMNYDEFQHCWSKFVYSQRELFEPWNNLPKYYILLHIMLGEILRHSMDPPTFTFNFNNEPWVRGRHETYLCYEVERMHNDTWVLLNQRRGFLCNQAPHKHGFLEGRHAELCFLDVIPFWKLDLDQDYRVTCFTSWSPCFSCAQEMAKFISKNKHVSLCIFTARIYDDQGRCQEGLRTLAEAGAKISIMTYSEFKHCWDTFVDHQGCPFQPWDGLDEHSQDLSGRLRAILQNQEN

Broadly, the IC50 is the concentration needed to halve the response being measured. Take `CN=c1nc(-c2ccccc2)n(-c2ccccc2)s1` [MN34, SCH-202676 hydrobromide]: the results for the IC50 (on human A3G (APOBEC3G) (setting [2]); on human A3A (APOBEC3A) (setting [3]); in experiment [1] (setting [4])) were 29 µM, 310 µM and over 200 µM, respectively.
In the case of `CC(N)(Cc1ccc(O)c(O)c1)C(=O)O` (racemic) [MN28, (±)–3-(3,4-Dihydroxyphenyl)-2-methyl-DL-alanine], the IC50 at human A3G (APOBEC3G) (setting [2]) was 13 µM; on human A3A (APOBEC3A) (setting [3]) it was over 200 µM; in experiment [1] (setting [4]) it was over 200 µM; at HIV-1 RNase H, over 25 µM.
On to `O=C(/C=C/c1ccc(O)c(O)c1)O[C@@H](C(=O)O)[C@@H](OC(=O)/C=C/c1ccc(O)c(O)c1)C(=O)O` [L-Chicoric Acid, reference compound], for which, on human A3G (APOBEC3G), the “inhibition of A3G catalytic activity (in words)” value is reported as “inhibited”. In addition, the IC50 on human A3G (APOBEC3G) (setting [2]) is 2.8 µM. Also, the “inhibition of A3A (in words)” value against human A3A (APOBEC3A) is given as “inhibited”.
Regarding `O=C(O)c1cc[c]([Hg][Cl])cc1` [MN6, 4-Chloromercuribenzoic acid], the IC50 on human A3G (APOBEC3G) (setting [2]) is 0.13 µM; on human A3A (APOBEC3A) (setting [3]) it was 0.26 µM.
Regarding `CCCN1CCc2cccc3c2[C@H]1Cc1ccc(O)c(O)c1-3` [MN14, R(−)-Propylnorapomorphine hydrochloride], the results for the IC50 at human A3G (APOBEC3G) (setting [2]) and on human A3A (APOBEC3A) (setting [3]) were 6.4 µM and over 200 µM, respectively.
`CC(Cc1ccc(O)c(O)c1)C(C)Cc1ccc(O)c(O)c1` (stereo not shown) [MN31, Nordihydroguaiaretic acid]: the values for the IC50 on human A3G (APOBEC3G) (setting [2]) and on human A3A (APOBEC3A) (setting [3]) were 8.8 µM and over 200 µM, respectively.
With `Oc1ccc(Cn2cc[nH]c2=S)cc1` [MN22, 1-(4-Hydroxybenzyl)imidazole-2-thio], the IC50 (on human A3A (APOBEC3A) (setting [3]); in experiment [1] (setting [4])) was over 200 µM in each case.
Turning to “R(−)-N-Allylnorapomorphine hydrobromide [MN11]”, the figures for the IC50 on human A3G (APOBEC3G) (setting [2]) and at human A3A (APOBEC3A) (setting [3]) were 2.9 µM and over 200 µM, respectively.
For `O=C(NN=Cc1c(O)ccc2ccccc12)c1cc(O)c(O)c(O)c1` [KMMP-02 (THBNH), reference compound], the IC50 is over 100 µM on human A3G (APOBEC3G) (setting [2]) and 0.2 µM on HIV RNase H (ref M. Parniak, unpublished).
As to `CCCN1CCc2cc(O)cc3c2[C@H]1Cc1ccc(O)c(O)c1-3` [MN17, R(−)-2,10,11-Trihydroxy-N-propylnoraporphine hydrobromide hydrate], the figures for the IC50 on human A3G (APOBEC3G) (setting [2]) and on human A3A (APOBEC3A) (setting [3]) were 13 µM and over 200 µM, respectively.
In the case of `CN[C@@H](C)[C@H](O)c1ccccc1` [MN25, (1R,2S)-(−)-Ephedrine], the IC50 on human A3G (APOBEC3G) (setting [2]) was 1.3 µM; at human A3A (APOBEC3A) (setting [3]), 54 µM.
For the compound `O=C(O)[C@H](O)[C@@H](O)C(=O)O` [L-Tartaric Acid, reference compound], on human A3G (APOBEC3G), the IC50 is over 100 µM and the “inhibition of A3G catalytic activity (in words)” value is “no effect”.
With `NC1CCc2cc(O)c(O)cc2C1` (racemic) [MN13, (±)-2-Amino-6,7-dihydroxy-1,2,3,4-tetrahydronaphthalene hydrobromide], the IC50 on human A3G (APOBEC3G) (setting [2]) is 0.7 µM; on human A3A (APOBEC3A) (setting [3]) it was over 200 µM; in experiment [1] (setting [4]), over 200 µM; on HIV-1 RNase H, over 25 µM.
In the case of `NC(Cc1cc(O)c(O)cc1O)C(=O)O` (racemic) [MN23, 6-Hydroxy-DL-DOPA], the “inhibition of A3G catalytic activity (in words)” value against human A3G (APOBEC3G) is reported as “inhibit A3G catalytic activity”. Moreover, the IC50 was 4 µM at human A3G (APOBEC3G) (setting [2]) and over 200 µM in experiment [1] (setting [4]). In addition, the “inhibition of A3A (in words)” value at human A3A (APOBEC3A) was “inhibit A3A”.
For the compound `OC[C@H]1O[C@H]([S-])[C@H](O)[C@@H](O)[C@@H]1O.[Au+]` [MN26, Aurothioglucose hydrate], the values for the IC50 (at human A3G (APOBEC3G) (setting [2]); on human A3A (APOBEC3A) (setting [3]); in experiment [1] (setting [4])) were 0.36 µM, over 200 µM and over 200 µM, respectively.
Manicol [reference compound]: the IC50 is over 100 µM at human A3G (APOBEC3G) (setting [2]) and 0.6 µM on HIV RNase H (published value).
With `CC(=O)NCCc1ccc(O)c(O)c1` [MN3, N-Acetyldopamine monohydrate], the results for the IC50 on human A3G (APOBEC3G) (setting [2]) and on human A3A (APOBEC3A) (setting [3]) were 0.45 µM and over 200 µM, respectively.
In the case of `O=C(O)[C@]1(O)C[C@@H](O)[C@@H](O)[C@H](O)C1` [Quinic Acid, reference compound], at human A3G (APOBEC3G), the half-inhibitory concentration (IC50) is over 100 µM and the “inhibition of A3G catalytic activity (in words)” value is “no effect”.
Take `CN1CCc2cc(O)cc3c2[C@H]1Cc1ccc(O)c(O)c1-3` [MN16, R(−)-2,10,11-Trihydroxyaporphine hydrobromide]: the half-inhibitory concentration (IC50) on human A3G (APOBEC3G) (setting [2]) was 1.7 µM; on human A3A (APOBEC3A) (setting [3]), over 200 µM; in experiment [1] (setting [4]), over 200 µM; at HIV-1 RNase H it was over 25 µM.
`CC(C)c1ccc(O)c(=O)c(O)c1` [β-Thujaplicinol, reference compound]: the IC50 was over 100 µM at human A3G (APOBEC3G) and 0.21 µM at HIV RNase H (published value).
In the case of `O=c1c(O)c(-c2cc(O)c(O)c(O)c2)oc2cc(O)cc(O)c12` [MN27, Myricetin], the figures for the IC50 (against human A3G (APOBEC3G); in experiment [1]) were 3.4 µM and over 200 µM, respectively. Besides, the “inhibition of A3G catalytic activity (in words)” value at human A3G (APOBEC3G) was “inhibit A3G catalytic activity”. For the same compound, the “inhibition of A3A (in words)” value at human A3A (APOBEC3A) is listed as “inhibit A3A”.
Consider `CC(=O)OCC1=C(C(=O)O)N2C(=O)[C@@H](NC(=O)CSc3ccncc3)[C@H]2SC1` [MN7, Cephapirin sodium salt], for which the IC50 was determined as 7.5 µM against human A3G (APOBEC3G) and 12 µM against human A3A (APOBEC3A).
Turning to `O=C(O)/C=C/c1ccc(O)c(O)c1` [MN5, Caffeic acid], the IC50 was 85 µM against human A3G (APOBEC3G), over 200 µM at human A3A (APOBEC3A) and over 200 µM in experiment [1].
On to `Oc1ccc(O)cc1` [MN21, Hydroquinone], for which, on human A3A (APOBEC3A), the half-inhibitory concentration (IC50) was over 200 µM.
For `O=C(/C=C/c1ccc(O)c(O)c1)OCCc1ccccc1` [CAPE, caffeic acid phenethyl ester, reference compound], on human A3G (APOBEC3G), the concentration for half-maximal inhibition (IC50) was over 100 µM and the “inhibition of A3G catalytic activity (in words)” value was “no significant effect”. Also, on human A3A (APOBEC3A), the “inhibition of A3A (in words)” value was “no significant effect”.
For the compound `C[C@@](Cc1ccc(O)c(O)c1)(NN)C(=O)O` [MN9, S-(−)-Carbidopa], the IC50 on human A3G (APOBEC3G) was 5.3 µM; on human A3A (APOBEC3A), over 200 µM.
With `O=C(/C=C/c1ccc(O)c(O)c1)O[C@@H]1C[C@](O)(C(=O)O)C[C@@H](O)[C@H]1O` [Chlorogenic acid, reference compound], at human A3G (APOBEC3G), the IC50 is over 100 µM and the “inhibition of A3G catalytic activity (in words)” value is on record as “no effect”.
Regarding `Cc1nc(N=Nc2cc(S(=O)(=O)O)c3cc([N+](=O)[O-])cc(S(=O)(=O)O)c3c2)c(COP(=O)(O)O)c(C=O)c1O` [MN33, PPNDS tetrasodium], the figures for the concentration for half-maximal inhibition (IC50) at human A3G (APOBEC3G) (setting [2]) and on human A3A (APOBEC3A) (setting [3]) were 5.6 µM and 3.3 µM, respectively.
As to `Oc1cc2c(cc1O)C(c1ccccc1)CNCC2` (racemic) [MN15, (±)-SKF-38393 hydrochloride], the values for the half-inhibitory concentration (IC50) (at human A3G (APOBEC3G) (setting [2]); at human A3A (APOBEC3A) (setting [3]); in experiment [1] (setting [4])) were 27 µM, over 200 µM and over 200 µM, respectively.
Take `COc1ccc2ccccc2c1/C=N/NC(=O)c1ccc(O)c(O)c1` [KMMP-05 (DHBNH), reference compound]: the IC50 is over 100 µM on human A3G (APOBEC3G) (setting [2]) and 0.5 µM on HIV RNase H (published value).
For `O=C(O)Cc1ccc(O)c(O)c1` [MN12, 3,4-Dihydroxyphenylacetic acid], the IC50 against human A3G (APOBEC3G) is 19 µM; against human A3A (APOBEC3A) it was over 200 µM; in experiment [1], over 200 µM.
`O=C1C=CC(=O)C=C1` [MN4, p-Benzoquinone]: the IC50 at human A3G (APOBEC3G) (setting [2]) was 0.17 µM; at human A3A (APOBEC3A) (setting [3]), over 200 µM.
Take `O=C(O)c1ccc(-c2cccc(/C=N/NC(=O)c3cc(O)c(O)c(O)c3)c2)cc1` [BHMP-07, reference compound]: the IC50 on human A3G (APOBEC3G) (setting [2]) was 13 µM; at HIV RNase H (published value) it was 0.1 µM.
As to `O=C(O)C1=CC(=C(c2ccc(O)c(C(=O)O)c2)c2ccc(O)c(C(=O)O)c2)C=CC1=O` [MN1, Aurintricarboxylic acid], the IC50 at human A3G (APOBEC3G) was 0.49 µM. Also, in experiment [1], the IC50 stood at 15 µM and the “inhibition of UDG activity (in words)” value was “blocked UDG activity”.
